Measured values reported in PubChem BioAssay (NCI).
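A five-concentration, 48-hour dose response in 96-well plates underlies each endpoint, interpolated linearly between surrounding concentrations. GI50: concentration for 50% inhibition of growth. TGI denotes the concentration required for complete inhibition of growth.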

What was measured:
Test in all cases: DTP human tumour cell line panel, 48 h
[1] = system: OVCAR-4 ovarian
[2] = system: A498 renal
[3] = system: M14 melanoma
[4] = system: PC-3 prostate
[5] = system: UACC-62 melanoma
[6] = system: SNB-75 CNS
[7] = system: RXF 393 renal
[8] = system: SK-OV-3 ovarian
[9] = system: HT29 colon
[10] = system: DU-145 prostate
[11] = system: A549 NSCLC
[12] = system: SK-MEL-2 melanoma
[13] = system: SF-295 CNS
[14] = system: HS 578T breast
[15] = system: IGROV1 ovarian
[16] = system: EKVX NSCLC
[17] = system: K-562 leukemia
[18] = system: MALME-3M melanoma
[19] = system: LOX IMVI melanoma
[20] = system: SR leukemia
[21] = system: HCT-116 colon
[22] = system: HOP-62 NSCLC
[23] = system: CCRF-CEM leukemia
[24] = system: NCI-H23 lung
[25] = system: MCF7 breast
[26] = system: UACC-257 melanoma
[27] = system: CAKI-1 renal
[28] = system: RPMI-8226 leukemia
[29] = system: SK-MEL-5 melanoma
[30] = system: MDA-MB-231 breast
[31] = system: HCC-2998 colon
[32] = system: MOLT-4 leukemia
[33] = system: HL-60(TB) leukemia
[34] = system: T-47D breast
[35] = system: TK-10 renal
[36] = system: NCI-H226 lung
[37] = system: BT-549 breast
[38] = system: SN12C renal
[39] = system: MDA-MB-468 breast
[40] = system: SF-268 CNS
[41] = system: HOP-92 NSCLC

O=C(/C=C/c1ccc(F)cc1)c1nc2ccccc2n1Cc1ccc(F)cc1
GI50 [1]: 4.3 µM | TGI [1]: > 100 µM | GI50 [2]: > 100 µM | TGI [2]: > 100 µM | GI50 [3]: 2.82 µM | TGI [3]: > 100 µM | GI50 [4]: 3.63 µM | TGI [4]: > 100 µM | GI50 [5]: 2.02 µM | TGI [5]: 7.09 µM | GI50 [6]: 1.11 µM | TGI [6]: 6.44 µM | GI50 [7]: 1.59 µM | TGI [7]: 3.4 µM | GI50 [8]: 15.5 µM | TGI [8]: > 100 µM | GI50 [9]: 2.33 µM | TGI [9]: 4.93 µM | GI50 [10]: 3.48 µM | TGI [10]: > 100 µM | GI50 [11]: 3.92 µM | TGI [11]: > 100 µM | GI50 [12]: 2.35 µM | TGI [12]: 6.17 µM | GI50 [13]: 2.59 µM | TGI [13]: 8.27 µM | GI50 [14]: 2.58 µM | TGI [14]: 20.4 µM | GI50 [15]: 3.03 µM | TGI [15]: > 100 µM | GI50 [16]: 3.48 µM | TGI [16]: > 100 µM | GI50 [17]: 2.68 µM | TGI [17]: > 100 µM | GI50 [18]: 2.61 µM | TGI [18]: 9.59 µM | GI50 [19]: 1.56 µM | TGI [19]: 3.08 µM | GI50 [20]: 1.86 µM | TGI [20]: 6.01 µM | GI50 [21]: 1.86 µM | TGI [21]: 4.46 µM | GI50 [22]: 3.2 µM | TGI [22]: 17.6 µM | GI50 [23]: 2.26 µM | TGI [23]: 7.46 µM | GI50 [24]: 2.88 µM | TGI [24]: 14.1 µM | GI50 [25]: 1.62 µM | TGI [25]: > 100 µM | GI50 [26]: 3.1 µM | TGI [26]: > 100 µM | GI50 [27]: 2.26 µM | TGI [27]: > 100 µM | GI50 [28]: 1.86 µM | TGI [28]: 5.03 µM | GI50 [29]: 2.63 µM | TGI [29]: 9.85 µM | GI50 [30]: 2.25 µM | TGI [30]: 5.59 µM | GI50 [31]: 2.1 µM | TGI [31]: 4.71 µM | GI50 [32]: 2.06 µM | TGI [32]: 6.04 µM | GI50 [33]: 1.73 µM | TGI [33]: 4.81 µM | GI50 [34]: 3.13 µM | TGI [34]: > 100 µM | GI50 [35]: 2.97 µM | TGI [35]: > 100 µM | GI50 [36]: 5.79 µM | TGI [36]: > 100 µM | GI50 [37]: 2.6 µM | TGI [37]: 8.56 µM | GI50 [38]: 3.64 µM | TGI [38]: > 100 µM | GI50 [39]: 2.19 µM | TGI [39]: 6.05 µM | GI50 [40]: 3.33 µM | TGI [40]: > 100 µM | GI50 [41]: 2.56 µM | TGI [41]: 57.9 µM
